The nature of data set [1]: Rate of encapsulation of Luc DNA in lipid nanoparticles. To be noted: Luc DNA-encapsulated lipid nanoparticles; cationic lipid:DPPC:cholesterol:GM-020=60:10.6:28:1.4 molar ratio. Details: unit: %. Format: physicochemical. An excerpt:
The concentration and rate of encapsulation of the nucleic acid (e.g., siRNA or mRNA) in the composition of the present invention can be measured by a known approach. For example, the nucleic acid is fluorescently labeled using Quant-iT™ RiboGreen® (Invitrogen Corp.), and the fluorescence intensity can be measured to determine the concentration and the rate of encapsulation. The concentration of the nucleic acid in the composition can be calculated using a calibration curve prepared from aqueous nucleic acid solutions having known concentrations. The rate of encapsulation can be calculated on the basis of the difference in fluorescence intensity between the presence and absence of addition of Triton-X 100 (surfactant for disrupting the lipid particle). The concentration of the nucleic acid in the composition refers to the total concentration of a nucleic acid encapsulated in the lipid particle and an unencapsulated nucleic acid. The rate of encapsulation refers to the ratio of the nucleic acid encapsulated in the lipid particle to all nucleic acids in the composition.
(§1) A lipid mixture containing a cationic lipid of the Examples shown in Table 2 (cationic lipid:DPPC:cholesterol:GM-020=60:10.6:28:1.4, molar ratio) was dissolved in 90% of EtOH and 10% of water to obtain a 15.0 mg/ml lipid solution. Luciferase (luc) DNA (manufactured by Nature Technology Corp.) was dissolved in a 10 mM MES buffer solution (pH 5.5) to obtain a 0.3 mg/ml nucleic acid solution. The obtained lipid solution and nucleic acid solution were mixed at a flow rate ratio of 3 ml/min:6 ml/min at room temperature using NanoAssemblr (manufactured by Precision NanoSystems Inc.) to obtain a dispersion containing Luc DNA-encapsulated lipid nanoparticles. The obtained dispersion was dialyzed against water at room temperature for 1 hour and against PBS at 4° C. for 23 hours using Slyde-A-Lyzer (molecular weight cutoff: 20 K, Thermo Fischer Scientific Inc.). Subsequently, the dialysate was filtered through a 0.2 µm syringe filter (Iwaki). A 60% solution of sucrose in PBS was added thereto, and the mixture was preserved as a 20% solution of sucrose in PBS at −80° C. Analysis results of particle size and rate of encapsulation of the Luc DNA-encapsulated lipid nanoparticles are also shown in Table 2.

For data set [2], the system named is ICrl:CD1 (ICR) mice. The data set can be described thus: Mouse bioluminescence imaging evaluation (Test Example 1). In kind it is in vivo. To be noted: Luc DNA-encapsulated lipid nanoparticles 10 mL/kg i.v. to ICR mice; IVIS total flux 15 minutes after luciferin i.p. The method, then: The Luc DNA-encapsulated lipid nanopatricles obtained in the aforesaid Production Example were intravenously administered to the tails of ICrl:CD1 (ICR) mice (10 mL/kg i.v.). After administration of the lipid particles, luciferin (15 mg/mL) was administered to the mice (10 mL/kg i.p.), which were loaded in an IVIS (in vivo imaging system) apparatus (manufactured by PerkinElmer, Inc.) under isoflurane inhalation anesthesia. Luminescence images of the mice were taken ventrally (in a supine position) 15 minutes after luciferin administration. The luminescence was digitized with the software of IVIS, followed by evaluation using the value of total flux. Higher luminescence means strong expression of the protein encoded by the DNA encapsulate in the lipid particle. In Table 2, higher luminescence is indicated on a scale of A, B and C in order. A represents luminescence of 3.0E+07 or more, B represents luminescence of 1.0E+0.7 or more and less than 3.0E+07, and C represents luminescence of less than 1.0E+07.

Data set [3] can be described thus: Particle size of Luc DNA-encapsulated lipid nanoparticles. In kind it is physicochemical. To be noted: cationic lipid:DPPC:cholesterol:GM-020=60:10.6:28:1.4 molar ratio.
Source text: The particle size of the lipid particle (in the composition) can be measured by a known approach. For example, the particle size can be calculated as a Z-average particle size by the cumulant analysis of an autocorrelation function using a particle size measurement apparatus Zetasizer Nano ZS (Malvern Instruments) based on a dynamic light scattering measurement technique. The particle size (average particle size) of the lipid particle (in the composition) is, for example, 10 to 200 nm, preferably 60 to 170 nm.
as §1

Consider `CCCCCCCOC(=O)CCCCC(=O)OCC(COC(=O)CCCCC(=O)OCCCCCCC)(COC(=O)CCCN(CC)C(C)C)COC(=O)CC(CCCCC)CCCCC` [Example 91, 1,1′-(2-[({4-[Ethyl(propan-2-yl)amino]butanoyl}oxy)methyl]-2-{[(3-pentyloctanoyl)oxy]methyl}propane-1,3-diyl] 6,6′-diheptyl dihexanedioate], for which, in data set [1], the Rate of encapsulation stood at 96.5. Further, the Luminescence result in data set [2] was “B (B represents luminescence of 1.0E+0.7 or more and less than 3.0E+07)”. In data set [3], the “Particle size (nm)” value was 111.9 nm.

For the molecule `CCCCCCCOC(=O)CCCCC(=O)OCC(COC(=O)CCCCC(=O)OCCCCCCC)(COC(=O)CCCN(C(C)C)C(C)C)COC(=O)CC(CCCCC)CCCCC` [Example 92, 1,1′-(2-[({4-[di(Propan-2-yl)amino]butanoyl}oxy)methyl]-2-{[(3-pentyloctanoyl)oxy]methyl}propane-1,3-diyl] 6,6′-diheptyl dihexanedioate], the Rate of encapsulation in data set [1] is listed as 94.1. For the same molecule, in data set [2], the Luminescence entry is “B (B represents luminescence of 1.0E+0.7 or more and less than 3.0E+07)”. Moreover, the “Particle size (nm)” value in data set [3] came to 125.7 nm.

For `CCCCCCCOC(=O)CCCCC(=O)OCC(COC(=O)CCCCC(=O)OCCCCCCC)(COC(=O)CCCN(C)CCCO)COC(=O)CC(CCCCC)CCCCC` [Example 94, 1,1′-Diheptyl 6,6′-(2-[({4-[(3-hydroxypropyl)(methyl)amino]butanoyl}oxy)methyl]-2-{[(3-pentyloctanoyl)oxy]methyl}propane-1,3-diyl) dihexanedioate], the Rate of encapsulation in data set [1] came to 93.0. Besides, the Luminescence entry in data set [2] is listed as “C (C represents luminescence of less than 1.0E+07)”. Also, the “Particle size (nm)” value in data set [3] turned out to be 129.4 nm.

As for `CCCCCC(CCCCC)COC(=O)CCC(=O)OCC(COC(=O)CCCN(C)C)(COC(=O)CCC(=O)OCC(CCCCC)CCCCC)COC(=O)CC(CCCCC)CCCCC` [Example 95, 1,1′-[2-({[4-(Dimethylamino)butanoyl]oxy}methyl)-2-{[(3-pentyloctanoyl)oxy]methyl}propane-1,3-diyl] 4,4′-bis(2-pentylheptyl) dibutanedioate], the Rate of encapsulation in data set [1] is 99.1. Further, in data set [2], the Luminescence entry is “B (B represents luminescence of 1.0E+0.7 or more and less than 3.0E+07)”. In addition, in data set [3], the “Particle size (nm)” value amounted to 82.6 nm.

`CCCCCC(CCCCC)COC(=O)CCC(=O)OCC(COC(=O)CCCN(C)C)(COC(=O)CC(CCCCC)CCCCC)COC(=O)CC(CCCCC)CCCCC` [Example 96, 2-({[4-(Dimethylamino)butanoyl]oxy}methyl)-3-[(3-pentyloctanoyl)oxy]-2-{[(3-pentyloctanoyl)oxy]methyl}propyl 2-pentylheptyl butanedioate]: the Rate of encapsulation in data set [1] came to 98.8. For the same molecule, the Luminescence entry in data set [2] is “B (B represents luminescence of 1.0E+0.7 or more and less than 3.0E+07)”. Also, the “Particle size (nm)” value in data set [3] was 74.2 nm.

Take `CCCCCCCCCOC(=O)CCC(=O)OCC(COC(=O)CCCN(C)C)(COC(=O)CCC(=O)OCCCCCCCCC)COC(=O)CC(CCCCC)CCCCC` [Example 97, 1,1′-[2-({[4-(Dimethylamino)butanoyl]oxy}methyl)-2-{[(3-pentyloctanoyl)oxy]methyl}propane-1,3-diyl] 4,4′-dinonyl dibutanedioate]: the Rate of encapsulation in data set [1] was 97.8. Moreover, the Luminescence result in data set [2] is reported as “A (A represents luminescence of 3.0E+07 or more)”. In data set [3], the “Particle size (nm)” value was determined as 118.7 nm.

Regarding `CCCCCCCCOC(=O)CCCC(=O)OCC(COC(=O)CCCC(=O)OCCCCCCCC)(COC(=O)CCCN(C)C)COC(=O)CC(CCCCC)CCCCC` [Example 98, 1,1′-[2-({[4-(Dimethylamino)butanoyl]oxy}methyl)-2-{[(3-pentyloctanoyl)oxy]methyl}propane-1,3-diyl] 5,5′-dioctyl dipentanedioate], the Rate of encapsulation in data set [1] came to 96.3. Also, the Luminescence result in data set [2] was “A (A represents luminescence of 3.0E+07 or more)”. Also, the “Particle size (nm)” value in data set [3] is reported as 140.5 nm.

On to `CCCCCCOC(=O)CCCCCC(=O)OCC(COC(=O)CCCCCC(=O)OCCCCCC)(COC(=O)CCCN(C)C)COC(=O)CC(CCCCC)CCCCC` [Example 99, 1,1′-[2-({[4-(Dimethylamino)butanoyl]oxy}methyl)-2-{[(3-pentyloctanoyl)oxy]methyl}propane-1,3-diyl] 7,7′-dihexyl diheptanedioate], for which the Rate of encapsulation in data set [1] is on record as 92.4. Further, in data set [2], the Luminescence result is reported as “A (A represents luminescence of 3.0E+07 or more)”. For the same molecule, the “Particle size (nm)” value in data set [3] is 153.8 nm.

Take `CCCCCCCCCOC(=O)CCC(=O)OCC(COC(=O)CCCN(CC)C(C)C)(COC(=O)CCC(=O)OCCCCCCCCC)COC(=O)CC(CCCCC)CCCCC` [Example 100]: the Rate of encapsulation in data set [1] was found to be 94.9. Also, the Luminescence result in data set [2] was “B (B represents luminescence of 1.0E+0.7 or more and less than 3.0E+07)”. The “Particle size (nm)” value in data set [3] was 141.8 nm.

As to `CCCCCCCCOC(=O)CCCC(=O)OCC(COC(=O)CCCC(=O)OCCCCCCCC)(COC(=O)CCCN(CC)C(C)C)COC(=O)CC(CCCCC)CCCCC` [Example 101, 1,1′-(2-[({4-[Ethyl(propan-2-yl)amino]butanoyl}oxy)methyl]-2-{[(3-pentyloctanoyl)oxy]methyl}propane-1,3-diyl) 5,5′-dioctyl dipentanedioate], in data set [1], the Rate of encapsulation is listed as 93.2. Moreover, in data set [2], the Luminescence result was “A (A represents luminescence of 3.0E+07 or more)”. Moreover, the “Particle size (nm)” value in data set [3] was found to be 137.2 nm.

Consider `CCCCCCOC(=O)CCCCCC(=O)OCC(COC(=O)CCCCCC(=O)OCCCCCC)(COC(=O)CCCN(CC)C(C)C)COC(=O)CC(CCCCC)CCCCC` [Example 102, 1,1′-(2-[({4-[Ethyl(propan-2-yl)amino]butanoyl}oxy)methyl]-2-{[(3-pentyloctanoyl)oxy]methyl}propane-1,3-diyl) 7,7′-dihexyl diheptanedioate], for which the Rate of encapsulation in data set [1] is 91.8. Moreover, the Luminescence result in data set [2] was “B (B represents luminescence of 1.0E+0.7 or more and less than 3.0E+07)”. Moreover, the “Particle size (nm)” value in data set [3] was found to be 139.8 nm.

For `CCCCCC(CCCCC)CC(=O)OCC(COC(=O)CCCCC(=O)OCC(CCC)CCC)(COC(=O)CCCCC(=O)OCC(CCC)CCC)COC(=O)CCCN(CC)C(C)C` [Example 116, 1,1′-(2-[({4-[Ethyl(propan-2-yl)amino]butanoyl}oxy)methyl]-2-{[(3-pentyloctanoyl)oxy]methyl}propane-1,3-diyl) 6,6′-bis(2-propylpentyl) dihexanedioate], the Rate of encapsulation in data set [1] is 97.0. Further, the Luminescence entry in data set [2] is “B (B represents luminescence of 1.0E+0.7 or more and less than 3.0E+07)”. Also, in data set [3], the “Particle size (nm)” value is 122.0 nm.

For `CCCCCC(CCCCC)CC(=O)OCC(COC(=O)CCCCC(=O)OCC(CCCC)CCCC)(COC(=O)CCCCC(=O)OCC(CCCC)CCCC)COC(=O)CCCN(C)C` [Example 117, 1,1′-Bis(2-butylhexyl) 6,6′-[2-({[4-(dimethylamino)butanoyl]oxy}methyl)-2-{[(3-pentyloctanoyl)oxy]methyl}propane-1,3-diyl] dihexanedioate], in data set [1], the Rate of encapsulation is 82.0. Besides, the Luminescence result in data set [2] was “B (B represents luminescence of 1.0E+0.7 or more and less than 3.0E+07)”. Besides, in data set [3], the “Particle size (nm)” value is on record as 161.0 nm.
